Data set [1] can be described thus: Cytotoxicity against Homo sapiens (human) MT4 cells assessed as inhibition of cell vaibility after 96 hr by MTT assay. In kind it is cell-based.
The subject of data set [2] is Respiratory syncytial virus. Kind of data set: Antiviral activity against Respiratory syncytial virus infected African green monkey Vero 76 cells assessed as reduction in plaque number treated after viral infection measured after 5 days by plaque reduction assay. The data set is classed as functional, organism-based. The note with it: human respiratory syncytial virus, 120 h.

The next data set deals with Coxsackievirus B2. Kind of data set: Antiviral activity against Human coxsackievirus B2 infected in African green monkey Vero 76 cells assessed as reduction in plaque number treated after viral infection measured after 3 days by plaque reduction assay. The data set is classed as functional, organism-based. As to conditions: Enterovirus B, 72 h. Background: Plaque reduction counts the foci of infection that form in a cell layer.

Data set [3] can be described thus: Cytotoxicity against Chlorocebus aethiops (African green monkey) Vero 76 cells assessed as inhibition of cell viability after 48 to 120 hr by MTT assay. In kind it is cell-based. As to conditions: chlorocebus sabaeus. For orientation: Tetrazolium assays rely on reduction of a dye to a coloured formazan, in cell work by metabolically active cells.
In the next data set the test system is Human alphaherpesvirus 1. Kind of data set: Antiviral activity against Human herpesvirus 1 infected African green monkey Vero 76 cells assessed as reduction in plaque number treated after viral infection measured after 3 days by plaque reduction assay. In kind it is functional, organism-based. As to conditions: Human alphaherpesvirus 1, Vero, 72 h.
A further data set concerns Yellow fever virus. Kind of data set: Antiviral activity against Yellow fever virus infected Syrian hamster BHK-21 cells assessed as protection against virus-induced cytopathogenicity treated 1 hr after viral infection measured after 3-4 days by MTT method. The data set is classed as functional, organism-based.
The subject of data set [4] is Human immunodeficiency virus 1. Kind of data set: Antiviral activity against Human immunodeficiency virus 1 infected human MT4 cells assessed as protection against virus-induced cytopathogenicity treated before viral infection measured after 4 days by MTT assay. The data set is classed as functional, organism-based. As to conditions: Human immunodeficiency virus 1, MT4, 96 h. Background: Cytopathic effects are the visible damage that an infection or toxin causes in cultured cells.

Data set [5] relates to Mammalian orthoreovirus 1. Kind of data set: Antiviral activity against Mammalian orthoreovirus 1 infected Syrian hamster BHK-21 cells assessed as protection against virus-induced cytopathogenicity treated 1 hr after viral infection measured after 3-4 days by MTT method. In kind it is functional, organism-based. As to conditions: Mammalian orthoreovirus 1, BHK-21.
In another data set the test system is Poliovirus 1. Kind of data set: Antiviral activity against Human poliovirus 1 strain Sabin infected African green monkey Vero 76 cells assessed as reduction in plaque number treated after viral infection measured after 2 days by plaque reduction assay. In kind it is functional, organism-based. As to conditions: Enterovirus C, 48 h.
A short description of data set [6]: Cytotoxicity against Mesocricetus auratus (Syrian golden hamster) BHK21cells assessed as inhibition of cell viability after 48 to 120 hr by MTT assay. In kind it is cell-based. As to conditions: BHK-21 cells.
A further data set relates to Vaccinia virus. Kind of data set: Antiviral activity against Vaccinia virus infected African green monkey Vero 76 cells assessed as reduction in plaque number treated after viral infection measured after 3 days by plaque reduction assay. The data set is classed as functional, organism-based. The note with it: Orthopoxvirus vaccinia, 72 h.
Data set [7] has as its system Bovine viral diarrhea virus 1. Kind of data set: Antiviral activity against Bovine viral diarrhea virus 1 infected bovine MDBK cells assessed as protection against virus-induced cytopathogenicity treated 1 hr after viral infection measured after 3-4 days by MTT method. In kind it is functional, organism-based. As to conditions: Bovine viral diarrhea virus isolates and strains.

Data set [8] is described as follows: Cytotoxicity against Bos taurus (bovine) MDBK cells assessed as inhibition of cell viability after 48 to 120 hr by MTT assay. The data set is classed as cell-based. As to conditions: cattle.
For data set [9], the system named is Vesicular stomatitis virus. Kind of data set: Antiviral activity against Vesicular stomatitis virus infected African green monkey Vero 76 cells assessed as reduction in plaque number treated after viral infection measured after 2 days by plaque reduction assay. In kind it is functional, organism-based. The note with it: 48 h.
Data set [10] in a line: Selectivity index, ratio of CC50 for bovine MDBK cells to EC50 for BVDV infected in bovine MDBK cells.

Each structure is given as a SMILES string. A value given as a limit tells only on which side of the number the result lay.

As a reminder, the CC50 is the concentration that lowers cell viability or growth by half. As a reminder, the EC50 is the midpoint of the concentration-response curve. In the case of `COc1ccc(-c2nnc3nnc4c5ccccc5[nH]c4n23)cc1OC`, in [1], the CC50 at 96 h is greater than 100 µM. Besides, the EC50 in data set [2] is greater than 100 µM; with Coxsackievirus B2 it was greater than 100 µM; in the data set on Human alphaherpesvirus 1 it was greater than 100 µM; with Yellow fever virus, greater than 100 µM; in [4] it was greater than 100 µM; in [5] it was 55 µM. For the same molecule, the EC50 (in the data set with Poliovirus 1; with Vaccinia virus; in data set [7]; in data set [9]) was greater than 100 µM each time. Further, the CC50 in data set [3], in [6] and in data set [8] was greater than 100 µM throughout.
As to `COc1ccc(-c2nnc3nnc4c5ccccc5[nH]c4n23)cc1`, in [1], the CC50 at 96 h was greater than 100 µM. Also, the EC50 (in data set [2]; with Coxsackievirus B2; in the data set on Human alphaherpesvirus 1; in the data set on Yellow fever virus; in [4]; in data set [5]) was greater than 100 µM throughout. The EC50 (with Poliovirus 1; with Vaccinia virus; in data set [7]; in [9]) was greater than 100 µM throughout. For the same molecule, the CC50 in data set [3], in data set [6] and in data set [8] was greater than 100 µM throughout.
For `CSc1ccc(-c2nnc3nnc4c5ccccc5[nH]c4n23)cc1`, the CC50 at 96 h in data set [1] was greater than 100 µM. In addition, the EC50 was greater than 90 µM in [2]; greater than 90 µM in the data set with Coxsackievirus B2; greater than 90 µM with Human alphaherpesvirus 1; greater than 100 µM in the data set with Yellow fever virus; greater than 100 µM in [4]; 45 µM in data set [5]. Besides, the EC50 with Poliovirus 1 is greater than 90 µM; with Vaccinia virus, greater than 90 µM; in data set [7], greater than 100 µM; in [9] it was greater than 90 µM. In addition, the values for the CC50 in data set [3], in data set [6] and in [8] were 90 µM, greater than 100 µM and greater than 100 µM, respectively.
With `Brc1cccc(-c2nnc3nnc4c5ccccc5[nH]c4n23)c1`, in data set [1], the CC50 at 96 h was greater than 100 µM. The EC50 (in [2]; in the data set on Coxsackievirus B2; in the data set with Human alphaherpesvirus 1; with Yellow fever virus; in data set [4]; in data set [5]) was greater than 100 µM throughout. For the same molecule, the EC50 (with Poliovirus 1; in the data set with Vaccinia virus; in data set [7]; in [9]) was greater than 100 µM throughout. Moreover, the CC50 in data set [3], in data set [6] and in data set [8] was greater than 100 µM throughout.
For `Fc1ccc(-c2nnc3nnc4c5ccccc5[nH]c4n23)cc1`, the CC50 at 96 h in data set [1] is greater than 100 µM. Also, the EC50 (in [2]; in the data set on Coxsackievirus B2; in the data set with Human alphaherpesvirus 1; in the data set with Yellow fever virus; in data set [4]; in [5]) was greater than 100 µM each time. Further, the EC50 (with Poliovirus 1; with Vaccinia virus; in data set [7]; in [9]) was greater than 100 µM throughout. Moreover, the cytotoxic concentration (CC50) in [3], in data set [6] and in data set [8] was greater than 100 µM in each case.
As to `Clc1ccccc1-c1nnc2nnc3c4ccccc4[nH]c3n12`, the CC50 at 96 h in data set [1] was greater than 100 µM. For the same molecule, the EC50 (in [2]; with Coxsackievirus B2; in the data set on Human alphaherpesvirus 1; in the data set on Yellow fever virus; in data set [4]; in data set [5]) was greater than 100 µM throughout. In addition, the EC50 (in the data set on Poliovirus 1; with Vaccinia virus; in data set [7]; in data set [9]) was greater than 100 µM each time. For the same molecule, the CC50 in data set [3], in [6] and in data set [8] was greater than 100 µM throughout.
Regarding `Clc1cccc(-c2nnc3nnc4c5ccccc5[nH]c4n23)c1`, the CC50 at 96 h in data set [1] is 29 µM. Besides, the EC50 was greater than 60 µM in data set [2]; greater than 60 µM in the data set with Coxsackievirus B2; greater than 60 µM in the data set with Human alphaherpesvirus 1; greater than 55 µM in the data set with Yellow fever virus; greater than 29 µM in data set [4]; greater than 55 µM in data set [5]. The concentration for a half-maximal effect (EC50) is greater than 60 µM with Poliovirus 1, greater than 60 µM in the data set on Vaccinia virus, 69 µM in data set [7] and greater than 60 µM in data set [9]. Besides, the CC50 was 60 µM in data set [3], 55 µM in data set [6] and greater than 100 µM in data set [8]. In data set [10], the “Ratio CC50/EC50” value was greater than 1.45.
Consider `COc1cc(-c2nnc3nnc4c5ccccc5[nH]c4n23)ccc1O`, for which the CC50 at 96 h in data set [1] stood at 58 µM. The EC50 in data set [2] is greater than 80 µM; in the data set with Coxsackievirus B2, greater than 80 µM; with Human alphaherpesvirus 1, greater than 80 µM; in the data set with Yellow fever virus, greater than 45 µM; in data set [4], greater than 58 µM; in data set [5] it was 25 µM. Further, the EC50 with Poliovirus 1 is greater than 80 µM; in the data set on Vaccinia virus, greater than 80 µM; in data set [7] it was 90 µM; in data set [9], greater than 80 µM. Further, the CC50 in data set [3] is 80 µM; in data set [6], 45 µM; in [8], greater than 100 µM. In addition, in [10], the “Ratio CC50/EC50” value is greater than 1.11.
In the case of `c1ccc2c(-c3nnc4nnc5c6ccccc6[nH]c5n34)c3ccccc3cc2c1`, the CC50 at 96 h in data set [1] was 56 µM. Moreover, the EC50 is greater than 100 µM in data set [2]; greater than 100 µM in the data set on Coxsackievirus B2; greater than 100 µM in the data set with Human alphaherpesvirus 1; greater than 56 µM in data set [4]; greater than 100 µM in data set [5]; 3 µM in [7]. Also, the CC50 in data set [3] was no less than 100 µM; in data set [6], greater than 100 µM; in data set [8] it was greater than 100 µM. Moreover, the “Ratio CC50/EC50” value in data set [10] was greater than 33.33.

(Values after ChEMBL document CHEMBL3046811, “Syntheses and in vitro biological screening of 1-aryl-10H-[1,2,4]triazolo[3,4:3,4][1,2,4]triazino[5,6-b]indoles” (Med Chem Res, 2013).)
